Assay results: patent US8546338B2, “Self-assembling hydrogels based on dicephalic peptide amphiphiles” (Johnson & Johnson Consumer Companies, Inc., priority 2010, dated 2013)
Where a SMILES comes first, the peptide text is derived from it. Where no end group is shown, it is not given here. The star is where a group is joined. Palmitoyl = CCCCCCCCCCCCCCCC(=O)*

Key:
Type in all cases: physicochemical
[1] = Gelation experiments: inversion test for self-supporting hydrogels; conditions: for Gelation (self-supporting gel on inversion), DMEM: DPA solution in water mixed 1:1 with DMEM; for Gelation (self-supporting gel on inversion), DMEM / Concentration at which gel forms, DMEM: no calcium added; for Gelation (self-supporting gel on inversion), PBS / Gelation (self-supporting gel on inversion), Water: final concentrations 1, 2 and 4 weight percent tested; for Concentration at which gel forms, DMEM: mixed with DMEM; for Gelation (self-supporting gel on inversion), Calcium added: DMEM plus 10 μl of 100 mg/cc calcium chloride solution; for Concentration at which gel forms, Calcium added: DMEM with calcium chloride added; for Gelation under all conditions tested: 2-4 wt %, water, DMEM and DMEM plus calcium; for Gelation (self-supporting gel on inversion), PBS / Concentration at which gel forms, PBS / Gelation under all conditions tested: PBS
Description: Inversion tests were performed to determine qualitatively under which conditions the various DPAs formed self-supporting hydrogels. The various types of DPAs were tested by dissolving them in ultrapure water (>18 MΩ resistivity) at double the desired final concentration followed by mixing in a 1:1 ratio with different liquid mediums. Gelation was deemed to have occurred if the gel supported its own weight upon inverting the vial (FIG. 3A and FIG. 3B). Gelation was tested at final concentrations of 1, 2 and 4 weight percent. We tested phosphate buffered saline (PBS), and Dulbecco's modified eagle media (DMEM) as liquid medium. Typical scale is 100 μl each of DPA solution in water and mixing medium but other scales have been tested. Finally, if no spontaneous gelation occurs, 10 μl of 100 mg/cc calcium chloride solution was added to induce gelation.

[2] = Oscillating rheology, strain sweep; conditions: 2 wt % gels in DMEM
Description: (§1) Oscillating rheology by the parallel plates method (radius=25 mm) was performed on 400 μl gels to assess the mechanical strengths of gels. Time sweeps were performed to evaluate kinetics of formation at a constant strain rate of 1% and frequency of 1 rad/s. Strain sweeps were performed ranging from 1-100% strain in increments of 2% at a constant frequency of 1 rad/s. Cross-over of G′ and G″ was used to determine the gel point and point of breakdown. Time sweeps were initiated immediately after mixing the solutions that lead to DPA hydrogel formation. In the strain sweeps, the gels were allowed to form on the plate for 30 minutes before the measurement is initiated.
Strains sweeps were performed on 2 wt % Gly-Phe-Gly-Phe-Gly-Phe-Gly-Gln-Gln-Ser (SEQ ID NO: 8), Gly-Phe-Gly-Phe-Gly-Phe-Gly-Gln-Gly-Ser (SEQ ID NO: 12) and Gly-Phe-Gly-Phe-Gly-Phe-Gly-Asn-Asn-Ser (SEQ ID NO: 11) gels in DMEM (FIG. 8). Gels were allowed to form for 30 minutes before the experiment was initiated.

[3] = Oscillating rheology, time sweep (kinetics of formation); conditions: for Gel point after mixing: 2 wt % gels in DMEM
Description: as §1
The gelation process was initiated on the plate at 25° C. by the addition of 10 μl of 100 mg/ml calcium chloride solution to a solution of the DPA in DMEM.

[4] = listed as linear peptide amphiphile analogue

Row | Compound | Gelation (self-supporting gel on inversion), DMEM [1] | Gelation (self-supporting gel on inversion), PBS [1] | Gelation (self-supporting gel on inversion), Water ([1]; in water) | Concentration at which gel forms, DMEM [1] [%] | Gelation (self-supporting gel on inversion), Calcium added [1] | further results
1 | CCCCCCCCCCCCCCCC(=O)NC(C(=O)NCC(=O)N[C@@H](Cc1ccccc1)C(=O)NCC(=O)N[C@@H](Cc1ccccc1)C(=O)NCC(=O)N[C@@H](Cc1ccccc1)C(=O)NCC(=O)N[C@@H](CC(N)=O)C(=O)NCC(=O)N[C@@H](CO)C(=O)O)C(=O)NCC(=O)N[C@@H](Cc1ccccc1)C(=O)NCC(=O)N[C@@H](Cc1ccccc1)C(=O)NCC(=O)N[C@@H](Cc1ccccc1)C(=O)NCC(=O)N[C@@H](CC(N)=O)C(=O)NCC(=O)N[C@@H](CO)C(=O)O [Gly-Phe-Gly-Phe-Gly-Phe-Gly-Asn-Gly-Ser] | Yes, | No | No | 2 |  | 
2 | CCCCCCCCCCCCCCCC(=O)NC(C(=O)NCC(=O)N[C@@H](Cc1ccccc1)C(=O)NCC(=O)N[C@@H](Cc1ccccc1)C(=O)NCC(=O)N[C@@H](Cc1ccccc1)C(=O)NCC(=O)N[C@@H](CCC(N)=O)C(=O)NCC(=O)N[C@@H](CO)C(=O)O)C(=O)NCC(=O)N[C@@H](Cc1ccccc1)C(=O)NCC(=O)N[C@@H](Cc1ccccc1)C(=O)NCC(=O)N[C@@H](Cc1ccccc1)C(=O)NCC(=O)N[C@@H](CCC(N)=O)C(=O)NCC(=O)N[C@@H](CO)C(=O)O [Gly-Phe-Gly-Phe-Gly-Phe-Gly-Gln-Gly-Ser] | Yes, | Yes, | No | 2 |  | Strain at which gel re-crosses the transition point (breakdown) ([2]; formed for 30 minutes): 99 % strain; Strain at which gel re-crosses the transition point (breakdown) ([2]; formed for 30 minutes, listed as Gln-Gly-Ser (SEQ ID NO: 30)): ~100 % strain; Gel point after mixing [3]: instantaneous; Concentration at which gel forms, PBS [1]: 2%; Gelation characteristics, qualitative comparison ([1]; compared to the SEQ ID NO: 8 DPA): formed more rapidly and appears to be stronger
3 | GFGFGFGQQS-OH [Gly-Phe-Gly-Phe-Gly-Phe-Gly-Gln-Gln-Ser, reference compound] | No | No | No |  | No | Gelation under all conditions tested [1]: did not form any gels
4 | CCCCCCCCCCCCCCCC(=O)NC(C(=O)NCC(=O)N[C@@H](Cc1ccccc1)C(=O)NCC(=O)N[C@@H](Cc1ccccc1)C(=O)NCC(=O)N[C@@H](Cc1ccccc1)C(=O)NCC(=O)N[C@@H](CC(N)=O)C(=O)N[C@@H](CC(N)=O)C(=O)N[C@@H](CO)C(=O)O)C(=O)NCC(=O)N[C@@H](Cc1ccccc1)C(=O)NCC(=O)N[C@@H](Cc1ccccc1)C(=O)NCC(=O)N[C@@H](Cc1ccccc1)C(=O)NCC(=O)N[C@@H](CC(N)=O)C(=O)N[C@@H](CC(N)=O)C(=O)N[C@@H](CO)C(=O)O [Gly-Phe-Gly-Phe-Gly-Phe-Gly-Asn-Asn-Ser] | Yes, | Yes, | Yes, | 2 |  | Initial strength in strain sweep, comparison [2]: highest initial strength; Strain at which decline in properties starts ([2]; formed for 30 minutes): 15 % strain; Strain at which gel re-crosses the transition point (breakdown) ([2]; formed for 30 minutes): 42 % strain; Strain at which gel re-crosses the transition point (breakdown) ([2]; formed for 30 minutes, listed as Asn-Asn-Ser (SEQ ID NO: 29)): 40 % strain; Gel point after mixing [3]: instantaneous; Rheological properties in kinetics of formation experiment, comparison ([3]; polar, non-charged solubility enhancing regions compared): highest rheological properties; Concentration at which gel forms, PBS [1]: 4%; Concentration at which gel forms, Water ([1]; in water): 2%

Continued, in another order:

Row | Gelation (self-supporting gel on inversion), DMEM [1] | Gelation (self-supporting gel on inversion), PBS [1] | Gelation (self-supporting gel on inversion), Water ([1]; in water) | Concentration at which gel forms, DMEM [1] [%] | Gelation (self-supporting gel on inversion), Calcium added [1] | Compound | further results
5 | Yes, | No | No | 2 |  | CCCCCCCCCCCCCCCC(=O)NC(C(=O)NCC(=O)N[C@@H](Cc1ccccc1)C(=O)NCC(=O)N[C@@H](Cc1ccccc1)C(=O)NCC(=O)N[C@@H](Cc1ccccc1)C(=O)NCC(=O)NCC(=O)N[C@@H](CC(N)=O)C(=O)N[C@@H](CO)C(=O)O)C(=O)NCC(=O)N[C@@H](Cc1ccccc1)C(=O)NCC(=O)N[C@@H](Cc1ccccc1)C(=O)NCC(=O)N[C@@H](Cc1ccccc1)C(=O)NCC(=O)NCC(=O)N[C@@H](CC(N)=O)C(=O)N[C@@H](CO)C(=O)O [Gly-Phe-Gly-Phe-Gly-Phe-Gly-Gly-Asn-Ser] | 
6 | No | No | No |  | Yes, | CCCCCCCCCCCCCCCC(=O)NCC(=O)N[C@@H](Cc1ccccc1)C(=O)NCC(=O)N[C@@H](Cc1ccccc1)C(=O)NCC(=O)N[C@@H](Cc1ccccc1)C(=O)NCC(=O)N[C@@H](CCC(N)=O)C(=O)N[C@@H](CCC(N)=O)C(=O)N[C@@H](CO)C(=O)O [reference compound] (Palmitoyl-GFGFGFGQQS-OH) | Gelation (self-supporting gel on inversion), Calcium added [1, 4]: could be gelled; Concentration at which gel forms, Calcium added [1]: 2%; Gelation (self-supporting gel on inversion), DMEM [1, 4]: did not form gels; Gelation (self-supporting gel on inversion), PBS [1, 4]: did not form gels; Gelation (self-supporting gel on inversion), Water ([1]; in water, listed as linear peptide amphiphile analogue): did not form gels
7 | No | No | No |  | No | CCCCCCCCCCCCCCCC(=O)NC(C(=O)NCC(=O)N[C@@H](Cc1c[nH]c2ccccc12)C(=O)NCC(=O)N[C@@H](Cc1c[nH]c2ccccc12)C(=O)NCC(=O)N[C@@H](Cc1c[nH]c2ccccc12)C(=O)NCC(=O)N[C@@H](CCC(N)=O)C(=O)N[C@@H](CCC(N)=O)C(=O)N[C@@H](CO)C(=O)O)C(=O)NCC(=O)N[C@@H](Cc1c[nH]c2ccccc12)C(=O)NCC(=O)N[C@@H](Cc1c[nH]c2ccccc12)C(=O)NCC(=O)N[C@@H](Cc1c[nH]c2ccccc12)C(=O)NCC(=O)N[C@@H](CCC(N)=O)C(=O)N[C@@H](CCC(N)=O)C(=O)N[C@@H](CO)C(=O)O [Gly-Trp-Gly-Trp-Gly-Trp-Gly-Gln-Gln-Ser] | Gelation under all conditions tested [1]: no gelation was observed
8 | Yes, | No | No | 2 |  | CCCCCCCCCCCCCCCC(=O)NC(C(=O)NCC(=O)N[C@@H](Cc1ccccc1)C(=O)NCC(=O)N[C@@H](Cc1ccccc1)C(=O)NCC(=O)N[C@@H](Cc1ccccc1)C(=O)NCC(=O)NCC(=O)N[C@@H](CCC(N)=O)C(=O)N[C@@H](CO)C(=O)O)C(=O)NCC(=O)N[C@@H](Cc1ccccc1)C(=O)NCC(=O)N[C@@H](Cc1ccccc1)C(=O)NCC(=O)N[C@@H](Cc1ccccc1)C(=O)NCC(=O)NCC(=O)N[C@@H](CCC(N)=O)C(=O)N[C@@H](CO)C(=O)O [Gly-Phe-Gly-Phe-Gly-Phe-Gly-Gly-Gln-Ser] | 
9 | does not gel and No | does not gel and No | does not gel and No |  | does form gels and Yes | CCCCCCCCCCCCCCCC(=O)NC(C(=O)NCC(=O)N[C@@H](Cc1ccc(O)cc1)C(=O)NCC(=O)N[C@@H](Cc1ccc(O)cc1)C(=O)NCC(=O)N[C@@H](Cc1ccc(O)cc1)C(=O)NCC(=O)N[C@@H](CCC(N)=O)C(=O)N[C@@H](CCC(N)=O)C(=O)N[C@@H](CO)C(=O)O)C(=O)NCC(=O)N[C@@H](Cc1ccc(O)cc1)C(=O)NCC(=O)N[C@@H](Cc1ccc(O)cc1)C(=O)NCC(=O)N[C@@H](Cc1ccc(O)cc1)C(=O)NCC(=O)N[C@@H](CCC(N)=O)C(=O)N[C@@H](CCC(N)=O)C(=O)N[C@@H](CO)C(=O)O [Gly-Tyr-Gly-Tyr-Gly-Tyr-Gly-Gln-Gln-Ser] | Concentration at which gel forms, Calcium added [1]: 2%
